Assays:
Format in all cases: biochemical
MDM2 = MDM2 (Homo sapiens, UniProt Q00987); experiment: Plate-based E3 ligase assay, MDM2 autoubiquitination (MDM2-FLAG); settings: Table 2; read-out: MDM2 IC50
Protocol: (§1) E3 (His-APC11/APC2—“APC”) auto-ubiquitination was measured as described in U.S. patent application Ser. No. 09/826,312 (Publication No. US-2002-0042083-A1), which is incorporated herein in its entirety. Details of the protocol are described below. Activity in the presence of the compound was determined relative to a parallel control in which only DMSO was added. Values of the IC50 were typically determined using 6 or 8 different concentrations of the compound, although as few as 2 concentrations may be used to approximate the IC50 value.
(§2) Nickel-coated 96-well plates (Pierce 15242) were blocked for 1 hour with 100 μl of blocking buffer at room temperature. The plates were washed 4 times with 225 μl of 1×PBS and 80 μl of the reaction buffer were added that contained 100 ng/well of Flag-ubiquitin. To this, 10 μl of the test compound diluted in DMSO were added. After the test compound was added, 10 μl of E1 (human), E2 (Ubch5c), and APC in Protein Buffer was added to obtain a final concentration of 5 ng/well of E1, 20 ng/well: of E2 and 100 ng/well of APC. The plate were shaken for 10 minutes and incubated at room temperature for 1 hour. After incubation, the plates were washed 4 times with 225 μl of 1×PBS and 100 μl/well of Antibody Mix were added to each well. The plates were incubate at room temperature for another hour after which they were washed 4 times with 225 μl of 1×PBS and 100 μl/well of Lumino substrate were added to each well. The luminescence was measured by using a BMG luminescence microplate reader.
In similar manner, autoubiquitination of the E3 MDM2 was determined (MDM2-FLAG). Further instruction in such assays can be found in U.S. patent application Ser. No. 10/108,767 (Publication No. US-2003-0104474 A1), which is incorporated herein in its entirety.
hMDM2 Plate/Gel is Mouse double minute 2, human homolog. This protein belongs to the E3 RING finger ligase group.

[1] = biological target: E3 (His-APC11/APC2, "APC") (Homo sapiens, UniProt Q9NYG5+Q9UJX6); experiment: Plate-based E3 ligase assay (APC FLAG), auto-ubiquitination; settings: Table 2; read-out: APC IC50
E3 (His-APC11/APC2, "APC"), sequence (Q9NYG5 whole entry): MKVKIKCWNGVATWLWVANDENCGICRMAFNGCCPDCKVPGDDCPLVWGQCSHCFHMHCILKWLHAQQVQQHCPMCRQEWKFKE
E3 (His-APC11/APC2, "APC"), sequence (Q9UJX6 whole entry): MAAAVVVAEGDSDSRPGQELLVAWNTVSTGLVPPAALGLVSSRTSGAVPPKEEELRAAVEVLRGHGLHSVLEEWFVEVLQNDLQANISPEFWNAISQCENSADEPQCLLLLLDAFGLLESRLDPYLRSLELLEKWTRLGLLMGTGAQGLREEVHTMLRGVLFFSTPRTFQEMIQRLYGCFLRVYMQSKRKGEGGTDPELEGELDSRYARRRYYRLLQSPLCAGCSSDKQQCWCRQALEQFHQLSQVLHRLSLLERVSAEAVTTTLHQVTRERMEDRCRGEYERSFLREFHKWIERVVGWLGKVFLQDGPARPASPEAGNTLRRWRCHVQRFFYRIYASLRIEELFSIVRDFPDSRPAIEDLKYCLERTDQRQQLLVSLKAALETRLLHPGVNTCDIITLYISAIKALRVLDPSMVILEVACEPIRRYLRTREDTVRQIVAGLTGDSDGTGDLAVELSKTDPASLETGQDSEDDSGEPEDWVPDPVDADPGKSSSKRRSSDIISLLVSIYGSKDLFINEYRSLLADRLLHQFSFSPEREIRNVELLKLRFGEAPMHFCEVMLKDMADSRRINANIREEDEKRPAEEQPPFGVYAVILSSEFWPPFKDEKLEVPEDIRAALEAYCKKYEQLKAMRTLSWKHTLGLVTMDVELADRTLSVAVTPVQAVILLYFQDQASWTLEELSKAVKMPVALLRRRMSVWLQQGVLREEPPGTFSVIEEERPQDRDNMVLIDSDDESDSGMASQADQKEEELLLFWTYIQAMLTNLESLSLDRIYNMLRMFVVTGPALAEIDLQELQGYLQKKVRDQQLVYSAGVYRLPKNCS
Protocol: as §1, §2
APC Plate/gel is Anaphase Promoting Complex. This protein also belongs to E3 RING finger ligase group.

E2 (Ubch5c) = E2 (Ubch5c) (Homo sapiens, UniProt P61077); experiment: E2 ligase assay, E2 auto-ubiquitination; settings: Table 2
E2 (Ubch5c), sequence (P61077 whole entry): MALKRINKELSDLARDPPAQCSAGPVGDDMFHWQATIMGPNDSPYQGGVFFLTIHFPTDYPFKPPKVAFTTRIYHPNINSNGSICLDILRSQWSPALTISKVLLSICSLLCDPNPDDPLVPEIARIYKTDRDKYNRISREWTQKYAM
Protocol: E2 (Ubch5c) auto-ubiquitination was measured as described in U.S. patent application Ser. No. 09/826,312 (Publication No. US-2002-0042083-A1), which is incorporated herein in its entirety. Details of the protocol are described below. Activity in the presence of the test compound was determined relative to a parallel control in which only DMSO was added. The IC50 values were typically determined using 6 or 8 different concentrations of compound, although as few as 2 concentrations may be used to approximate IC50 values.
Corning 96-well plates (Corning 3650) were blocked with 100 μl of Blocking Buffer for 1 hour at room temperature. The plates were washed for 4 times with 225 μl of 1×PBS and 80 μl of the reaction buffer were added that contained 100 ng/well of Flag-ubiquitin. To this, 10 μl of the test compound diluted in DMSO were added. After the test compound was added, 10 μl of E1 (human) and E2 (Ubch5c) in Protein Buffer were added to obtain a final concentration of 5 ng/well of E1 and 20 ng/well of E2. The plates were shaken for 10 minutes and incubated at room temperature for 1 hour. After incubation, the reaction was stopped by adding 25 μl of loading buffer (non-reducing) per well and the plates were heated at 95° C. for 5 minutes. An aliquot of each well was run on a 10% NugePage Gel and analyzed by Western Blot using the antibody mix and Lumino substrate described below. The luminescence was measured using a BMG luminescence microplate reader.

MDM2, sequence (Q00987 whole entry): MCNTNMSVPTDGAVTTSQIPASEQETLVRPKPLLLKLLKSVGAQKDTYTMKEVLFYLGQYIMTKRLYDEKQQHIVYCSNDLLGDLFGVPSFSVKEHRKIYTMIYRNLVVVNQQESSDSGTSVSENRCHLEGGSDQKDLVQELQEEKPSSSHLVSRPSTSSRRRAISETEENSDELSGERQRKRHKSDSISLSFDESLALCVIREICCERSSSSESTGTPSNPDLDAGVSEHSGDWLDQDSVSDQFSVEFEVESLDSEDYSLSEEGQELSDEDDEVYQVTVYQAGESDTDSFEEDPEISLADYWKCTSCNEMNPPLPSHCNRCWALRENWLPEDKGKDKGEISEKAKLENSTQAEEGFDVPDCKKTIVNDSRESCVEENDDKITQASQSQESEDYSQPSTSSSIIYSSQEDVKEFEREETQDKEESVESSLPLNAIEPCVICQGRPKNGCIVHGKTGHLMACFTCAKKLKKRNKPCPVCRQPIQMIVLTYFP

IC50 (MDM2) [µM] | IC50 [1] [µM] | IC50 (E2 (Ubch5c)) [µM] | Compound
≥ 20 | ≥ 20 | – | Cc1sc(N(C)Cc2ccc(C(=O)NCc3cccc(CN)c3)cc2)nc1-c1ccccc1 [compound 14]
1 to 20 | 1 to 20 | – | CN(Cc1ccc(C(=O)NC(Cc2ccccc2)C(=O)O)cc1)c1nc(-c2ccc(Cl)cc2)cs1 (stereo not drawn) [compound 15]
1 to 20 | 1 to 20 | – | CCN(Cc1ccc(C(=O)NCc2cccc(CN)c2)cc1)c1nc(-c2ccc(-c3ccccc3)cc2)cs1 [compound 65]
≥ 20 | – | – | CCN(Cc1ccc(C(=O)NCC(=O)O)cc1)c1nc(-c2ccc(Cl)cc2)cs1 [compound 146, N-(4-{[[4-(4-chlorophenyl)-1,3-thiazol-2-yl](ethyl)amino]methyl}benzoyl)glycine]
< 1 | – | – | COc1cccc(-c2csc(N(Cc3ccccc3)Cc3ccc(C(=O)NCC(=O)O)cc3)n2)c1 [compound 177]
1 to 20 | – | – | O=C(O)CNC(=O)c1ccc(CN(CCc2ccccc2)c2nc(-c3ccccc3)cs2)cc1 [compound 186]
1 to 20 | – | – | CCN(Cc1ccc(C(=O)NCC(=O)O)cc1)c1nc(-c2ccc(-c3ccccc3)cc2)cs1 [compound 193]
1 to 20 | – | – | COc1ccc(OC)c(-c2csc(N(Cc3ccccc3)Cc3ccc(C(=O)NCC(=O)O)cc3)n2)c1 [compound 207]
< 1 | 1 to 20 | – | COc1ccc(OC)c(-c2csc(N(Cc3ccc(C(=O)NCC(=O)O)cc3)c3ccccc3F)n2)c1 [compound 215]
1 to 20 | – | – | O=C(O)CNC(=O)c1ccc(CN(Cc2ccccc2)c2nc(-c3ccccc3)cs2)cc1 [compound 216]
≥ 20 | ≥ 20 | – | COc1ccc(-c2csc(N(Cc3ccc(C(=O)N4CCNCC4)cc3)Cc3cccc(OC(F)(F)F)c3)n2)cc1 [compound 222]
≥ 20 | ≥ 20 | – | COc1ccc(-c2csc(N(CCOc3ccccc3)Cc3ccc(C(=O)N4CCNCC4)cc3)n2)cc1 [compound 223]
≥ 20 | ≥ 20 | – | COc1cccc(CN(Cc2ccc(C(=O)N3CCNCC3)cc2)c2nc(-c3cccc([N+](=O)[O-])c3)cs2)c1OC [compound 224]
≥ 20 | ≥ 20 | – | CC(C)N(CCN(Cc1ccc(C(=O)N2CCNCC2)cc1)c1nc(-c2ccccc2Cl)cs1)C(C)C [compound 225]
≥ 20 | ≥ 20 | – | COc1ccc(-c2csc(N(CCN(C(C)C)C(C)C)Cc3ccc(C(=O)N4CCNCC4)cc3)n2)cc1 [compound 227]
≥ 20 | 1 to 20 | – | O=C(c1ccc(CN(Cc2cccc(OC(F)(F)F)c2)c2nc(-c3cccc([N+](=O)[O-])c3)cs2)cc1)N1CCNCC1 [compound 228]
≥ 20 | 1 to 20 | – | COc1cccc(CN(Cc2ccc(C(=O)N3CCNCC3)cc2)c2nc(-c3ccc(C)cc3)cs2)c1OC [compound 230]
≥ 20 | ≥ 20 | – | COc1cccc(-c2csc(N(CCN(C(C)C)C(C)C)Cc3ccc(C(=O)N4CCNCC4)cc3)n2)c1 [compound 231]

IC50 (MDM2) [µM] | IC50 [1] [µM] | IC50 (E2 (Ubch5c)) [µM] | Compound
1 to 20 | 1 to 20 | – | Cc1ccc(-c2csc(N(Cc3ccc(C(=O)N4CCNCC4)cc3)Cc3cccc(OC(F)(F)F)c3)n2)cc1 [compound 235]
≥ 20 | 1 to 20 | – | COc1cccc(CN(Cc2ccc(C(=O)N3CCNCC3)cc2)c2nc(-c3ccc(Cl)cc3)cs2)c1OC [compound 245]
≥ 20 | ≥ 20 | – | O=C(c1ccc(CN(Cc2cccc(OC(F)(F)F)c2)c2nc(-c3ccc(Cl)cc3)cs2)cc1)N1CCNCC1 [compound 251]
≥ 20 | 1 to 20 | – | O=C(c1ccc(CN(CCOc2ccccc2)c2nc(-c3ccc(Cl)cc3)cs2)cc1)N1CCNCC1 [compound 252]
≥ 20 | 1 to 20 | – | COc1ccc(OC)c(-c2csc(N(Cc3ccc(C(=O)N4CCNCC4)cc3)Cc3cccc(OC(F)(F)F)c3)n2)c1 [compound 267]
≥ 20 | ≥ 20 | – | COc1ccc(OC)c(-c2csc(N(CCOc3ccccc3)Cc3ccc(C(=O)N4CCNCC4)cc3)n2)c1 [compound 268]
– | ≥ 20 | – | COc1cccc(CN(Cc2ccc(C(=O)N3CCNCC3)cc2)c2nc(-c3ccc(C)cc3)cs2)c1OC [compound 283]
≥ 20 | ≥ 20 | – | O=C(c1ccc(CN(c2nc(-c3ccc(Cl)cc3)cs2)c2cccc3ccccc23)cc1)N1CCNCC1 [compound 289]
≥ 20 | ≥ 20 | – | O=C(c1ccc(CN(CCOc2ccccc2)c2nc(-c3ccc(F)cc3)cs2)cc1)N1CCNCC1 [compound 290]
≥ 20 | 1 to 20 | – | COc1ccc(-c2csc(N(Cc3ccc(C(=O)N4CCNCC4)cc3)Cc3cccc(OC)c3OC)n2)cc1 [compound 291]
≥ 20 | ≥ 20 | – | COc1ccccc1-c1csc(N(CCN(C(C)C)C(C)C)Cc2ccc(C(=O)N3CCNCC3)cc2)n1 [compound 292]
1 to 20 | 1 to 20 | ≥ 20 | COc1cccc(CN(Cc2ccc(C(=O)N3CCNCC3)cc2)c2nc(-c3ccc(Cl)c(Cl)c3)cs2)c1OC [compound 297]
1 to 20 | 1 to 20 | ≥ 20 | COc1ccccc1-c1csc(N(Cc2ccc(C(=O)N3CCNCC3)cc2)Cc2cccc(OC(F)(F)F)c2)n1 [compound 328]
1 to 20 | 1 to 20 | – | O=C(c1ccc(CN(Cc2cccc(OC(F)(F)F)c2)c2nc(-c3ccc(Br)cc3)cs2)cc1)N1CCNCC1 [compound 343]
1 to 20 | 1 to 20 | – | O=C(c1ccc(CN(CCOc2ccccc2)c2nc(-c3ccc(Br)cc3)cs2)cc1)N1CCNCC1 [compound 344]
≥ 20 | 1 to 20 | ≥ 20 | COc1cccc(CN(Cc2ccc(C(=O)N3CCNCC3)cc2)c2nc(-c3ccccc3Cl)cs2)c1OC [compound 345]
1 to 20 | 1 to 20 | – | O=C(c1ccc(CN(Cc2cccc(OC(F)(F)F)c2)c2nc(-c3ccc(Cl)c(Cl)c3)cs2)cc1)N1CCNCC1 [compound 359]

Reference: patent US20060160869A1, “Ubiquitin ligase inhibitors” (Rigel Pharmaceuticals, Inc., priority 2005, published 2006)
